# Assay results: patent US20110191867A1
# Read-outs that look alike come from different tables or passages of the source.
# What was measured:
# [1] = system: commercial polyclonal antibody from rabbit; assay: ELISA control: commercial polyclonal antibody binding to peptide coated on a maleimide plate
# Source text: A commercial peptide […] (HA11-peptide), which has been used as a recognition tag on recombinant proteins was used as a control and for testing of analysis of binding between a free core peptide and human antibodies. Due to restricted availability of at least N-terminal sequence the peptide would not be very effective in immunization against the viral as therapy. This peptide is known to be antigenic in animals under immunization conditions and antibodies including polyclonals from rabbit, mice etc.
# [2] = system: serum antibodies of test subjects
# natural human antibodies [3] = format: binding
# natural human antibodies [4] = system: natural human antibodies
# [5] = system: serum antibodies of test subjects; remark: listed apart in the source
Substance,reaction with serum of test subject [2],"immune response of the 6 sera, order of reactivity (natural human antibodies [3])","immune response of the 6 sera, order of reactivity (natural human antibodies [4])",also measured
"CYPYDVPDYA [HA11-N Cys, commercial peptide used as a recognition tag on recombinant proteins, used as a control]",,,,binding of commercial polyclonal antibody from rabbit to the peptide [1]: effective binding
Biotin-aminocaproyl-CRPRVRNICG-NH4 [Peptide 1C],weaker reaction,,,"comparison of the cyclic and linear peptide, reactivity with sera [2]: more reactive with all subjects except S3B; reactivity with sera of test subjects [2]: Strong responses were observed from the serum of test subjects S5B an S7B"
Biotin-aminohexanoyl-SKAYSNC [Peptide P1-N],,"reacted with sera in the order from strongest to weaker: 6, 3, 4, and 2, while 1 and 5 were weakly or non-reactive","sera 3 and 4 showed strongest immune response before serum 2, while sera 1, 5 and 6 were weakly or non-reactive",
Biotin-aminocaproyl-CRPKVRDQC [Peptide 3B],weaker reaction,,,"serum antibody response ([5]; person S5B, vaccinated against influenza, FIG. 5): unusually high response"
Biotin-aminohexanoyl-SYACKR [Peptide P2-N],,reacted with sera similarily but reactions with serum 5 was weaker and the serum 6 showed the strongest reponse,"sera 2 and 5 showed strongest immune response before sera 3, 4 and 6, while serum 1 showed weakest reaction",
Biotin-aminocaproyl-CRPWVRGVC [Peptide 4B],,,,"antibody binding, cyclic peptide compared with corresponding linear peptide ([5]; sera S1B-S8B, FIG. 8): bind generally more strongly antibodies than the corresponding linear peptide 3"
